# Laboratory results reported in ChEMBL document CHEMBL1201862, “PubChem BioAssay data set” (2004).
# Where “and” joins values, the source holds several entries; their conditions need not be identical. Equal entries are not always repeated.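 How tested: cells in 96-well plates exposed to compound for 48 hours at five concentrations. Abbreviation: GI50, concentration required for 50% inhibition of growth.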 Calls of active or inactive are those of the source. Rule as the data show it: active = GI50 up to about 1.1 µM and inactive = higher.
# Assays:
# Assay in all cases: NCI tumour cell line growth inhibition, 48 h
# [1] = system: DLD-1
# [2] = system: EKVX
# [3] = system: KM12
# [4] = system: A549
# [5] = system: COLO 205
# [6] = system: RXF 393
# [7] = system: CCRF-CEM
# [8] = system: SNB-19
# [9] = system: HOP-18
# [10] = system: NCI-H23
# [11] = system: DMS-114
# [12] = system: HCT-116
# [13] = system: SK-MEL-5
# [14] = system: SF-295
# [15] = system: UACC-62
# [16] = system: HCT-15
# [17] = system: SNB-78
# [18] = system: SNB-75
# [19] = system: XF498
# [20] = system: 786-0
# [21] = system: HL-60
# [22] = system: TK-10
# [23] = system: A498
# [24] = system: U-251
# [25] = system: OVCAR-3
# [26] = system: UACC-257
# [27] = system: HT-29
# [28] = system: OVCAR-4
# [29] = system: SF-268
# [30] = system: K562
# [31] = system: Malme-3M
# [32] = system: IGROV-1
# [33] = system: MOLT-4
# [34] = system: LXFL 529
# [35] = system: KM-20L2
# [36] = system: DMS-273
# [37] = system: CAKI-1
# [38] = system: M19-MEL
# [39] = system: NCI-H522
# [40] = system: SW-620
# [41] = system: SK-MEL-28
# [42] = system: OVCAR-5
# [43] = system: HCC 2998
# [44] = system: ACHN
# [45] = system: HOP-62
# [46] = system: NCI-H460
# [47] = system: HOP-92
# [48] = system: SF-539
# [49] = system: UO-31
# [50] = system: M14
# [51] = system: SN12C
# [52] = system: SK-OV-3
# [53] = system: SK-MEL-2
# [54] = system: NCI-H226
# [55] = system: LOX IMVI
# [56] = system: OVCAR-8
# [57] = system: PC-3
# [58] = system: NCI/ADR-RES
# [59] = system: Hs-578T
# [60] = system: MDA-N
# [61] = system: MDA-MB-231
# [62] = system: T47D
# [63] = system: RXF 631
# [64] = system: DU-145
# [65] = system: MCF7
smiles,measurement,setting,value
CN(Cc1ccccc1)C1(N(C)Cc2ccccc2)CC1,GI50,[1],> 100 µM (inactive)
same,GI50,[2],> 100 µM (inactive)
same,GI50,[3],> 100 µM (inactive)
same,GI50,[4],> 100 µM (inactive)
same,GI50,[5],> 100 µM (inactive)
same,GI50,[6],> 100 µM (inactive)
same,GI50,[7],> 100 µM (inactive)
same,GI50,[8],> 100 µM (inactive)
same,GI50,[9],> 100 µM (inactive)
same,GI50,[10],> 100 µM (inactive)
same,GI50,[11],> 100 µM (inactive)
same,GI50,[12],> 100 µM (inactive)
same,GI50,[13],> 100 µM (inactive)
same,GI50,[14],> 100 µM (inactive)
same,GI50,[15],> 100 µM (inactive)
same,GI50,[16],> 100 µM
same,GI50,[17],> 100 µM (inactive)
same,GI50,[18],> 100 µM (inactive)
same,GI50,[19],> 100 µM (inactive)
same,GI50,[20],> 100 µM (inactive)
same,GI50,[21],> 100 µM (inactive)
same,GI50,[22],> 100 µM (inactive)
same,GI50,[23],> 100 µM (inactive)
same,GI50,[24],> 100 µM (inactive)
same,GI50,[25],> 100 µM (inactive)
same,GI50,[26],> 100 µM (inactive)
same,GI50,[27],> 100 µM (inactive)
same,GI50,[28],> 100 µM (inactive)
same,GI50,[29],> 100 µM (inactive)
same,GI50,[30],> 100 µM (inactive)
same,GI50,[31],> 100 µM (inactive)
same,GI50,[32],> 100 µM (inactive)
same,GI50,[33],> 100 µM (inactive)
same,GI50,[34],> 100 µM (inactive)
same,GI50,[35],> 100 µM (inactive)
same,GI50,[36],> 100 µM (inactive)
same,GI50,[37],> 100 µM (inactive)
same,GI50,[38],> 100 µM (inactive)
same,GI50,[39],> 100 µM (inactive)
same,GI50,[40],> 100 µM (inactive)
same,GI50,[41],> 100 µM (inactive)
same,GI50,[42],> 100 µM (inactive)
same,GI50,[43],> 100 µM (inactive)
same,GI50,[44],> 100 µM (inactive)
same,GI50,[45],> 100 µM (inactive)
same,GI50,[46],> 100 µM (inactive)
same,GI50,[47],> 100 µM (inactive)
same,GI50,[48],> 100 µM (inactive)
same,GI50,[49],> 100 µM (inactive)
same,GI50,[50],> 100 µM (inactive)
same,GI50,[51],> 100 µM (inactive)
same,GI50,[52],> 100 µM (inactive)
same,GI50,[53],> 100 µM (inactive)
same,GI50,[54],> 100 µM (inactive)
same,GI50,[55],> 100 µM (inactive)
same,GI50,[56],> 100 µM (inactive)
CC1(C)CC[C@H](C2=CC(=O)c3c(O)ccc(O)c3C2=O)O1,GI50,[57],2.86 µM (inactive) and 1.71 µM (inactive)
same,GI50,[11],359 nM (active) and 200 nM (active)
same,GI50,[58],2.79 µM (inactive)
same,GI50,[59],2.64 µM (inactive) and 2.74 µM (inactive)
same,GI50,[60],577 nM (active) and 904 nM (active)
same,GI50,[61],2.44 µM (inactive) and 1.48 µM (inactive)
same,GI50,[62],460 nM (active) and 470 nM (active)
same,GI50,[45],4.61 µM (inactive) and 2.72 µM (inactive)
same,GI50,[63],1.15 µM (inactive)
same,GI50,[64],2.4 µM (inactive) and 2.09 µM (inactive)
same,GI50,[52],8.05 µM (inactive) and 4.24 µM (inactive)
same,GI50,[65],173 nM (active) and 216 nM (active)
